The results in this text go back to patent US7432256B2, “Substitued imidazo [1,5-A][1,2,4]triazolo[1,5-D][1,4]benzodiazepine derivatives” (Hoffman-La Roche Inc., priority 2004, dated 2008).

For assay [1], the target named is T1, GABA A receptor a5b3g2 (hα5) (Homo sapiens, UniProt P18507+P31644).
T1 construct: expressed in transfected cells; host or cells: HEK293 (transient transfection), membranes
Briefly: [3H]flumazenil competition binding, GABA A a5b3g2 receptors in HEK293 cells. How it is done:
(§1) Membrane Preparation and Binding Assay
(§2) The affinity of compounds at GABA A receptor subtypes was measured by competition for [3H]flumazenil (85 Ci/mmol; Roche) binding to HEK293 cells expressing rat (stably transfected) or human (transiently transfected) receptors of composition a1b3g2, a2b3g2, a3b3g2 and a5b3g2.
(§3) Cell pellets were suspended in Krebs-tris buffer (4.8 mM KCl, 1.2 mM CaCl2, 1.2 mM MgCl2, 120 mM NaCl, 15 mM Tris; pH 7.5; binding assay buffer), homogenized by polytron for ca. 20 sec on ice and centrifuged for 60 min at 4° C. (50000 g; Sorvall, rotor: SM24=20000 rpm). The cell pellets were resuspended in Krebs-tris buffer and homogenized by polytron for ca. 15 sec on ice. Protein was measured (Bradford method, Bio-Rad) and aliquots of 1 mL were prepared and stored at −80° C.
(§4) Assays were incubated to equilibrium for 1 hour at 4° C. and harvested onto GF/C uni-filters (Packard) by filtration using a Packard harvester and washing with ice-cold wash buffer (50 mM Tris; pH 7.5). After drying, filter-retained radioactivity was detected by liquid scintillation counting. Ki values were calculated using Excel-Fit (Microsoft) and are the means of two determinations.
(§5) The major important difference is change from SF9 to HEK293 cells (which are human transiently transfected).

For assay [2], the target named is T2, GABA A receptor a1b3g2 (hα1) (Homo sapiens, UniProt P14867+P18507).
T2 construct: expressed in transfected cells; host or cells: HEK293 (transient transfection), membranes
In words: [3H]flumazenil competition binding, GABA A a1b3g2 receptors in HEK293 cells. How it is done:
as §1, §2, §3, §4, §5

Assay [3] has as its target T3, GABA A receptor a3b3g2 (hα3) (Homo sapiens, UniProt P18507+P34903).
T3 construct: expressed in transfected cells; host or cells: HEK293 (transient transfection), membranes
Briefly: [3H]flumazenil competition binding, GABA A a3b3g2 receptors in HEK293 cells. How it is done: as §1, §2, §3
(§6) Radioligand binding assays were carried out in a volume of […] (96-well plates) which contained […] of cell memebranes, [3H]flumazenil at a concentration of 1 nM for a1, a2, a3 subunits and 0.5 nM for a5 subunits and the test compound in the range of 10-10-3×10^-6 M. Nonspecific binding was defined by 10^-5 M diazepam and typically represented less than 5% of the total binding. Assays were incubated to equilibrium for 1 hour at 4° C. and harvested onto GF/C uni-filters (Packard) by filtration using a Packard harvester and washing with ice-cold wash buffer (50 mM Tris; pH 7.5). After drying, filter-retained radioactivity was detected by liquid scintillation counting. Ki values were calculated using Excel-Fit (Microsoft) and are the means of two determinations.
as §5

Assay [4] has as its target T4, GABA A receptor a2b3g2 (hα2) (Homo sapiens, UniProt P18507+P47869).
T4 construct: expressed in transfected cells; host or cells: HEK293 (transient transfection), membranes
Briefly: [3H]flumazenil competition binding, GABA A a2b3g2 receptors in HEK293 cells. How it is done: as §1, §2, §3, §6, §5

The mark [5] stands for this setting: [3H]flumazenil 0.5 nM, HEK293 membranes, human transiently transfected, mean of two determinations, read-out: Ki[nM] hα5.

Where two headings read alike, the source gives them in different places.

In general, Ki refers to a dissociation constant, usually derived from enzyme kinetics or from competition with a known ligand. For “3-Fluoro-10-(3-methoxy-phenylethynyl)-9H-imidazo[1,5-a][1,2,4]triazolo[1,5-d][1,4]benzodiazepine [Example 34]”, the Ki stood at 1.1 nM in assay [1] (setting [5]) and 14.1 nM in assay [2] ([3H]flumazenil 1 nM, HEK293 membranes, human transiently transfected, mean of two determinations, read-out: Ki[nM] hα1).

`Cc1ncn2c1Cn1ncnc1-c1ccccc1-2` [Example 1, 10-Methyl-9H-imidazo[1,5-a][1,2,4]triazolo[1,5-d][1,4]benzodiazepine]: the Ki in assay [3] amounted to 10.1 nM; in assay [1] (setting [5]), 2.6 nM; in assay [2], 41.6 nM; in assay [4], 15.5 nM.

Take `Cc1ncn2c1Cn1ncnc1-c1cc(F)ccc1-2` [Example 2, 3-Fluoro-10-methyl-9H-imidazo[1,5-a][1,2,4]triazolo[1,5-d][1,4]benzodiazepine]: the Ki was 10.8 nM in assay [3], 3 nM in assay [1] (setting [5]), 18.2 nM in assay [2] and 9.1 nM in assay [4].

`Cc1ncn2c1Cn1ncnc1-c1cc(Cl)ccc1-2` [Example 3, 3-Chloro-10-methyl-9H-imidazo[1,5-a][1,2,4]triazolo[1,5-d][1,4]benzodiazepine]: the inhibition constant (Ki) in assay [3] ([3H]flumazenil 1 nM, HEK293 membranes, human transiently transfected, mean of two determinations, read-out: Ki[nM] hα3) worked out at 265 nM; in assay [1], 3 nM; in assay [2] it was 18.5 nM; in assay [4] ([3H]flumazenil 1 nM, HEK293 membranes, human transiently transfected, mean of two determinations, read-out: Ki[nM] hα2), 219 nM.

With `CCc1ncn2c1Cn1ncnc1-c1cc(F)ccc1-2` [Example 9, 10-Ethyl-3-fluoro-9H-imidazo[1,5-a][1,2,4]triazolo[1,5-d][1,4]benzodiazepine], the inhibitory constant (Ki) is 1.3 nM in assay [3], 0.5 nM in assay [1] (setting [5]), 7.9 nM in assay [2] and 1.9 nM in assay [4].

With `CCc1ncn2c1Cn1ncnc1-c1cc(Cl)ccc1-2` [Example 10, 3-Chloro-10-ethyl-9H-imidazo[1,5-a][1,2,4]triazolo[1,5-d][1,4]benzodiazepine], the inhibitory constant (Ki) in assay [3] stood at 7 nM; in assay [1] (setting [5]), 2.1 nM; in assay [2] it was 15.4 nM; in assay [4], 9.6 nM.

Regarding `CCc1ncn2c1Cn1ncnc1-c1cc(OC)ccc1-2` [Example 11, 10-Ethyl-3-methoxy-9H-imidazo[1,5-a][1,2,4]triazolo[1,5-d][1,4]benzodiazepine], the inhibition constant (Ki) in assay [3] was determined as 39.1 nM; in assay [1] (setting [5]), 3.8 nM; in assay [2], 26.7 nM; in assay [4], 84.6 nM.

As for `CCCc1ncn2c1Cn1ncnc1-c1cc(Cl)ccc1-2` [Example 12, 3-Chloro-10-propyl-9H-imidazo[1,5-a][1,2,4]triazolo[1,5-d][1,4]benzodiazepine], the inhibitory constant (Ki) in assay [3] is 5.6 nM; in assay [1] (setting [5]), 1.6 nM; in assay [2] it was 4.2 nM; in assay [4] it was 7.9 nM.

As for `Clc1ccc2c(c1)-c1ncnn1Cc1c(CC3CC3)ncn1-2` [Example 14, 3-Chloro-10-cyclopropylmethyl-9H-imidazo[1,5-a][1,2,4]triazolo[1,5-d][1,4]benzodiazepine], the inhibitory constant (Ki) in assay [3] worked out at 6.1 nM; in assay [1] (setting [5]), 1.7 nM; in assay [2], 4.9 nM; in assay [4] it was 10.2 nM.

Take `C=Cc1ncn2c1Cn1ncnc1-c1ccccc1-2` [Example 18, 10-Vinyl-9H-imidazo[1,5-a][1,2,4]triazolo[1,5-d][1,4]benzodiazepine]: the Ki in assay [3] amounted to 3.7 nM; in assay [1] (setting [5]) it was 0.8 nM; in assay [2] it was 12.8 nM; in assay [4], 5.7 nM.

For `C=Cc1ncn2c1Cn1ncnc1-c1cc(F)ccc1-2` [Example 19, 3-Fluoro-10-vinyl-9H-imidazo[1,5-a][1,2,4]triazolo[1,5-d][1,4]benzodiazepine], the inhibitory constant (Ki) amounted to 2.3 nM in assay [3], 11 nM in assay [1] (setting [5]), 7.8 nM in assay [2] and 5.9 nM in assay [4].

Consider `C=Cc1ncn2c1Cn1ncnc1-c1cc(Cl)ccc1-2` [Example 20, 3-Chloro-10-vinyl-9H-imidazo[1,5-a][1,2,4]triazolo[1,5-d][1,4]benzodiazepine], for which the inhibition constant Ki is 20.8 nM in assay [3], 2.2 nM in assay [1] (setting [5]), 35.8 nM in assay [2] and 33.6 nM in assay [4].

In the case of `C/C=C/c1ncn2c1Cn1ncnc1-c1cc(Cl)ccc1-2` [Example 21, 3-Chloro-10-(E)-propenyl-9H-imidazo[1,5-a][1,2,4]triazolo[1,5-d][1,4]benzodiazepine], the inhibitory constant (Ki) was found to be 4.8 nM in assay [3], 0.4 nM in assay [1] (setting [5]), 5.2 nM in assay [2] and 6.9 nM in assay [4].

`Clc1ccc2c(c1)-c1ncnn1Cc1c(/C=C/C3CC3)ncn1-2` [Example 23, 3-Chloro-10-((E)-2-cyclopropyl-vinyl)-9H-imidazo[1,5-a][1,2,4]triazolo[1,5-d][1,4]benzodiazepine]: the inhibition constant Ki in assay [3] is 32.5 nM; in assay [1] (setting [5]) it was 3.7 nM; in assay [2] it was 26.9 nM; in assay [4], 41 nM.

With `C#Cc1ncn2c1Cn1ncnc1-c1cc(Cl)ccc1-2` [Example 26, 3-Chloro-10-ethynyl-9H-imidazo[1,5-a][1,2,4]triazolo[1,5-d][1,4]benzodiazepine], the Ki was 3.5 nM in assay [3], 0.5 nM in assay [1] (setting [5]), 4.6 nM in assay [2] and 6.4 nM in assay [4].

`C#Cc1ncn2c1Cn1ncnc1-c1cc(Br)ccc1-2` [Example 27, 3-Bromo-10-ethynyl-9H-imidazo[1,5-a][1,2,4]triazolo[1,5-d][1,4]benzodiazepine]: the inhibition constant Ki in assay [3] was 11.9 nM; in assay [1] (setting [5]), 0.9 nM; in assay [2], 20.3 nM; in assay [4], 19 nM.

In the case of `CC(C)(O)C#Cc1ncn2c1Cn1ncnc1-c1cc(Cl)ccc1-2` [Example 28, 3-Chloro-10-(3-hydroxy-3-methyl-but-1-ynyl)-9H-imidazo[1,5-a][1,2,4]triazolo[1,5-d][1,4]benzodiazepine], the Ki in assay [1] (setting [5]) was 3.6 nM; in assay [2], 91 nM.

Consider `Clc1ccc2c(c1)-c1ncnn1Cc1c(C#Cc3ccccc3)ncn1-2` [Example 30, 3-Chloro-10-phenylethynyl-9H-imidazo[1,5-a][1,2,4]triazolo[1,5-d][1,4]benzodiazepine], for which the Ki in assay [1] (setting [5]) was 1.2 nM; in assay [2] it was 13.3 nM.

Consider `Fc1cccc(C#Cc2ncn3c2Cn2ncnc2-c2cc(F)ccc2-3)c1` [Example 31, 3-Fluoro-10-(3-fluoro-phenylethynyl)-9H-imidazo[1,5-a][1,2,4]triazolo[1,5-d][1,4]benzodiazepine], for which the Ki in assay [3] turned out to be 3.6 nM; in assay [1] (setting [5]) it was 1.6 nM; in assay [2] it was 5.5 nM; in assay [4], 4.5 nM.

On to `Fc1ccc2c(c1)-c1ncnn1Cc1c(C#Cc3cccc(C(F)(F)F)c3)ncn1-2` [Example 33, 3-Fluoro-10-(3-trifluoromethyl-phenylethynyl)-9H-imidazo[1,5-a][1,2,4]triazolo[1,5-d][1,4]benzodiazepine], for which the Ki was determined as 1.2 nM in assay [1] (setting [5]) and 3.4 nM in assay [2].

As to `CC(C)c1cccc(C#Cc2ncn3c2Cn2ncnc2-c2cc(F)ccc2-3)c1` [Example 36, 3-Fluoro-10-(3-isopropyl-phenylethynyl)-9H-imidazo[1,5-a][1,2,4]triazolo[1,5-d][1,4]benzodiazepine], the Ki in assay [1] (setting [5]) was 1.5 nM; in assay [2], 4 nM.

For the compound `FC(F)=Cc1ncn2c1Cn1ncnc1-c1ccccc1-2` [Example 40, 10-(2,2-Difluoro-vinyl)-9H-imidazo[1,5-a][1,2,4]triazolo[1,5-d][1,4]benzodiazepine], the Ki in assay [3] turned out to be 2.3 nM; in assay [1] (setting [5]), 0.5 nM; in assay [2] it was 8.5 nM; in assay [4] it was 3.7 nM.

Take `FC(F)Cc1ncn2c1Cn1ncnc1-c1ccccc1-2` [Example 41, 10-(2,2-Difluoro-ethyl)-9H-imidazo[1,5-a][1,2,4]triazolo[1,5-d][1,4]benzodiazepine]: the inhibition constant Ki was 7 nM in assay [3], 1 nM in assay [1] (setting [5]), 13.5 nM in assay [2] and 14.4 nM in assay [4].

On to `CCCc1ncn2c1Cn1ncnc1-c1cc(Br)ccc1-2` [Example 42, 3-Bromo-10-propyl-9H-imidazo[1,5-a][1,2,4]triazolo[1,5-d][1,4]benzodiazepine], for which the inhibition constant Ki in assay [1] (setting [5]) was determined as 1.4 nM; in assay [2], 10.6 nM.
